Tests used:
Assay type in all cases: functional
Dialister micraerophilus [1] = assay: Antimicrobial activity against Dialister micraerophilus assessed as susceptibility breakpoint by CA-SFM method
Dialister pneumosintes [2] = assay: Antimicrobial activity against Dialister pneumosintes by agar dilution method
Dialister invisus [3] = assay: Antimicrobial activity against Dialister invisus assessed as susceptibility breakpoint by CLSI method
[4] = system: Dialister propionicifaciens; assay: Antimicrobial activity against Dialister propionicifaciens assessed as susceptibility breakpoint by CLSI method
[5] = system: Dialister propionicifaciens; assay: Antimicrobial activity against Dialister propionicifaciens assessed as susceptibility breakpoint by CA-SFM method
Dialister invisus [6] = assay: Antimicrobial activity against Dialister invisus assessed as susceptibility breakpoint by CA-SFM method
Dialister micraerophilus [7] = assay: Antimicrobial activity against Dialister micraerophilus assessed as susceptibility breakpoint by CLSI method
Dialister pneumosintes [8] = assay: Antimicrobial activity against Dialister pneumosintes assessed as susceptibility breakpoint by CA-SFM method
Dialister micraerophilus [9] = assay: Antimicrobial activity against Dialister micraerophilus by agar dilution method
Dialister pneumosintes [10] = assay: Antimicrobial activity against Dialister pneumosintes assessed as susceptibility breakpoint by CLSI method
[11] = system: Dialister propionicifaciens; assay: Antimicrobial activity against Dialister propionicifaciens by agar dilution method
Dialister invisus [12] = assay: Antimicrobial activity against Dialister invisus by agar dilution method

C[C@@H](O)[C@H]1C(=O)N2C(C(=O)O)=C(S[C@@H]3CN[C@H](C(=O)Nc4cccc(C(=O)O)c4)C3)[C@H](C)[C@H]12
0.125 µg/mL: MIC (Dialister pneumosintes [2]) | MIC50 (Dialister pneumosintes [2]) | MIC90 (Dialister pneumosintes [2]) | MIC (Dialister micraerophilus [9]) | MIC [11]
<=4 ug ml-1: Activity (Dialister micraerophilus [1]) | Activity (Dialister invisus [3]) | Activity [4] | Activity [5] | Activity (Dialister invisus [6]) | Activity (Dialister micraerophilus [7]) | Activity (Dialister pneumosintes [8]) | Activity (Dialister pneumosintes [10])

CC1(C)S[C@@H]2[C@H](NC(=O)[C@H](N)c3ccc(O)cc3)C(=O)N2[C@H]1C(=O)O [AMOXICILLIN]
<=0.5 ug ml-1: Activity (Dialister micraerophilus [1]) | Activity (Dialister invisus [3]) | Activity [4] | Activity [5] | Activity (Dialister invisus [6]) | Activity (Dialister micraerophilus [7]) | Activity (Dialister pneumosintes [8]) | Activity (Dialister pneumosintes [10])
≤ 0.06 µg/mL: MIC (Dialister pneumosintes [2]) | MIC50 (Dialister pneumosintes [2]) | MIC90 (Dialister pneumosintes [2]) | MIC (Dialister micraerophilus [9]) | MIC50 (Dialister micraerophilus [9]) | MIC90 (Dialister micraerophilus [9]) | MIC (Dialister invisus [12]) | MIC [11]

CO[C@@]1(NC(=O)Cc2cccs2)C(=O)N2C(C(=O)O)=C(COC(N)=O)CS[C@@H]21 [CEFOXITIN]
0.5 µg/mL: MIC (Dialister pneumosintes [2]) | MIC50 (Dialister pneumosintes [2]) | MIC (Dialister micraerophilus [9]) | MIC50 (Dialister micraerophilus [9]) | MIC90 (Dialister micraerophilus [9]) | MIC (Dialister invisus [12]) | MIC [11]
<=8 ug ml-1: Activity (Dialister micraerophilus [1]) | Activity [5] | Activity (Dialister invisus [6]) | Activity (Dialister pneumosintes [8])
1 µg/mL: MIC90 (Dialister pneumosintes [2])
<=16 ug ml-1: Activity (Dialister invisus [3]) | Activity [4] | Activity (Dialister micraerophilus [7]) | Activity (Dialister pneumosintes [10])

CC(=O)OCC1=C(C(=O)O)N2C(=O)[C@@H](NC(=O)Cc3cccs3)[C@H]2SC1 [CEPHALOTHIN]
0.25 µg/mL: MIC (Dialister pneumosintes [2]) | MIC (Dialister micraerophilus [9]) | MIC [11]
1 µg/mL: MIC90 (Dialister pneumosintes [2])
<=8 ug ml-1: Activity (Dialister micraerophilus [1]) | Activity [5] | Activity (Dialister invisus [6]) | Activity (Dialister pneumosintes [8])
0.5 µg/mL: MIC50 (Dialister pneumosintes [2])

O=C(N[C@H](CO)[C@H](O)c1ccc([N+](=O)[O-])cc1)C(Cl)Cl [CHLORAMPHENICOL]
0.5 µg/mL: MIC90 (Dialister pneumosintes [2])
0.25 µg/mL: MIC (Dialister pneumosintes [2]) | MIC50 (Dialister pneumosintes [2]) | MIC (Dialister micraerophilus [9]) | MIC50 (Dialister micraerophilus [9]) | MIC (Dialister invisus [12]) | MIC [11]
1 µg/mL: MIC90 (Dialister micraerophilus [9])
<=8 ug ml-1: Activity (Dialister micraerophilus [1]) | Activity (Dialister invisus [3]) | Activity [4] | Activity [5] | Activity (Dialister invisus [6]) | Activity (Dialister micraerophilus [7]) | Activity (Dialister pneumosintes [8]) | Activity (Dialister pneumosintes [10])

O=C(O)c1cn(C2CC2)c2cc(N3CCNCC3)c(F)cc2c1=O [CIPROFLOXACIN]
≤ 0.06 µg/mL: MIC (Dialister pneumosintes [2]) | MIC50 (Dialister pneumosintes [2]) | MIC90 (Dialister pneumosintes [2]) | MIC (Dialister micraerophilus [9]) | MIC50 (Dialister micraerophilus [9]) | MIC90 (Dialister micraerophilus [9]) | MIC (Dialister invisus [12]) | MIC [11]
<=0.5 ug ml-1: Activity (Dialister micraerophilus [1]) | Activity [5] | Activity (Dialister invisus [6]) | Activity (Dialister pneumosintes [8])

CCC[C@@H]1C[C@@H](C(=O)N[C@@H]([C@H]2O[C@H](SC)[C@H](O)[C@@H](O)[C@H]2O)[C@H](C)Cl)N(C)C1 [CLINDAMYCIN]
0.125 µg/mL: MIC (Dialister pneumosintes [2]) | MIC50 (Dialister pneumosintes [2]) | MIC90 (Dialister pneumosintes [2]) | MIC (Dialister micraerophilus [9]) | MIC50 (Dialister micraerophilus [9]) | MIC90 (Dialister micraerophilus [9]) | MIC (Dialister invisus [12]) | MIC [11]
<=2 ug ml-1: Activity (Dialister micraerophilus [1]) | Activity (Dialister invisus [3]) | Activity [4] | Activity [5] | Activity (Dialister invisus [6]) | Activity (Dialister micraerophilus [7]) | Activity (Dialister pneumosintes [8]) | Activity (Dialister pneumosintes [10])

C[C@H]1c2cccc(O)c2C(=O)C2=C(O)[C@]3(O)C(=O)C(C(N)=O)=C(O)[C@@H](N(C)C)[C@@H]3[C@@H](O)[C@@H]21.O [DOXYCYCLINE]
≤ 0.06 µg/mL: MIC (Dialister pneumosintes [2]) | MIC (Dialister micraerophilus [9]) | MIC [11]
<=4 ug ml-1: Activity (Dialister micraerophilus [1]) | Activity [5] | Activity (Dialister invisus [6]) | Activity (Dialister pneumosintes [8])
0.25 µg/mL: MIC50 (Dialister pneumosintes [2]) | MIC90 (Dialister pneumosintes [2])

CC[C@H]1OC(=O)[C@H](C)[C@@H](O[C@H]2C[C@@](C)(OC)[C@@H](O)[C@H](C)O2)[C@H](C)[C@@H](O[C@@H]2O[C@H](C)C[C@H](N(C)C)[C@H]2O)[C@](C)(O)C[C@@H](C)C(=O)[C@H](C)[C@@H](O)[C@]1(C)O [ERYTHROMYCIN]
<=1 ug ml-1: Activity (Dialister micraerophilus [1]) | Activity [5] | Activity (Dialister invisus [6]) | Activity (Dialister pneumosintes [8])
0.125 µg/mL: MIC (Dialister pneumosintes [2]) | MIC (Dialister micraerophilus [9]) | MIC [11]
1 µg/mL: MIC50 (Dialister pneumosintes [2])
2 µg/mL: MIC90 (Dialister pneumosintes [2])

C[C@@H](O)[C@H]1C(=O)N2C(C(=O)O)=C(SCCNC=N)C[C@H]12 [IMIPENEM ANHYDROUS]
0.06 µg/mL: MIC50 (Dialister micraerophilus [9]) | MIC (Dialister invisus [12])
0.25 µg/mL: MIC90 (Dialister pneumosintes [2])
<=4 ug ml-1: Activity (Dialister micraerophilus [1]) | Activity (Dialister invisus [3]) | Activity [4] | Activity [5] | Activity (Dialister invisus [6]) | Activity (Dialister micraerophilus [7]) | Activity (Dialister pneumosintes [8]) | Activity (Dialister pneumosintes [10])
≤ 0.06 µg/mL: MIC (Dialister pneumosintes [2]) | MIC50 (Dialister pneumosintes [2]) | MIC90 (Dialister micraerophilus [9]) | MIC [11]

C[C@H]1COc2c(N3CCN(C)CC3)c(F)cc3c(=O)c(C(=O)O)cn1c23.C[C@H]1COc2c(N3CCN(C)CC3)c(F)cc3c(=O)c(C(=O)O)cn1c23.O [LEVOFLOXACIN]
<=1 ug ml-1: Activity (Dialister micraerophilus [1]) | Activity [5] | Activity (Dialister invisus [6]) | Activity (Dialister pneumosintes [8])
0.5 µg/mL: MIC90 (Dialister pneumosintes [2])
0.25 µg/mL: MIC (Dialister pneumosintes [2]) | MIC50 (Dialister pneumosintes [2]) | MIC (Dialister micraerophilus [9]) | MIC [11]

Cc1ncc([N+](=O)[O-])n1CCO [METRONIDAZOLE]
<=8 ug ml-1: Activity (Dialister invisus [3]) | Activity [4] | Activity (Dialister micraerophilus [7]) | Activity (Dialister pneumosintes [10])
8 µg/mL: MIC90 (Dialister pneumosintes [2]) | MIC90 (Dialister micraerophilus [9])
2 µg/mL: MIC50 (Dialister micraerophilus [9]) | MIC (Dialister invisus [12])
1 µg/mL: MIC (Dialister pneumosintes [2]) | MIC (Dialister micraerophilus [9]) | MIC [11]
4 µg/mL: MIC50 (Dialister pneumosintes [2])
<=2 ug ml-1: Activity (Dialister micraerophilus [1]) | Activity [5] | Activity (Dialister invisus [6]) | Activity (Dialister pneumosintes [8])

COc1c(N2C[C@@H]3CCCN[C@@H]3C2)c(F)cc2c(=O)c(C(=O)O)cn(C3CC3)c12 [MOXIFLOXACIN]
0.25 µg/mL: MIC90 (Dialister micraerophilus [9])
≤ 0.06 µg/mL: MIC (Dialister pneumosintes [2]) | MIC50 (Dialister pneumosintes [2]) | MIC (Dialister micraerophilus [9]) | MIC50 (Dialister micraerophilus [9]) | MIC (Dialister invisus [12]) | MIC [11]
<=1 ug ml-1: Activity (Dialister micraerophilus [1]) | Activity (Dialister pneumosintes [8])
0.06 µg/mL: MIC90 (Dialister pneumosintes [2])

CCN1CCN(C(=O)N[C@@H](C(=O)N[C@@H]2C(=O)N3[C@@H]2SC(C)(C)[C@@H]3C(=O)O)c2ccccc2)C(=O)C1=O [PIPERACILLIN]
0.125 µg/mL: MIC50 (Dialister micraerophilus [9]) | MIC (Dialister invisus [12]) | MIC [11]
<=8 ug ml-1: Activity (Dialister micraerophilus [1]) | Activity [5] | Activity (Dialister invisus [6]) | Activity (Dialister pneumosintes [8])
<=32 ug ml-1: Activity (Dialister invisus [3]) | Activity [4] | Activity (Dialister micraerophilus [7]) | Activity (Dialister pneumosintes [10])
1 µg/mL: MIC50 (Dialister pneumosintes [2]) | MIC90 (Dialister micraerophilus [9])
≤ 0.125 µg/mL: MIC (Dialister pneumosintes [2])
16 µg/mL: MIC90 (Dialister pneumosintes [2])

CO[C@H]1/C=C/O[C@@]2(C)Oc3c(C)c(O)c4c(O)c(c(/C=N/N5CCN(C)CC5)c(O)c4c3C2=O)NC(=O)/C(C)=C\C=C\[C@H](C)[C@H](O)[C@@H](C)[C@@H](O)[C@@H](C)[C@H](OC(C)=O)[C@@H]1C [RIFAMPIN]
<=2 ug ml-1: Activity (Dialister micraerophilus [1]) | Activity [5] | Activity (Dialister invisus [6]) | Activity (Dialister pneumosintes [8])
2 µg/mL: MIC50 (Dialister pneumosintes [2])
4 µg/mL: MIC90 (Dialister pneumosintes [2])
≤ 0.06 µg/mL: MIC (Dialister pneumosintes [2]) | MIC (Dialister micraerophilus [9]) | MIC50 (Dialister micraerophilus [9]) | MIC90 (Dialister micraerophilus [9]) | MIC (Dialister invisus [12]) | MIC [11]

CC[C@H]1OC(=O)[C@H](C)C(=O)[C@H](C)[C@@H](O[C@@H]2O[C@H](C)C[C@H](N(C)C)[C@H]2O)[C@](C)(OC)C[C@@H](C)C(=O)[C@H](C)[C@H]2N(CCCCn3cnc(-c4cccnc4)c3)C(=O)O[C@]12C [TELITHROMYCIN]
<=0.5 ug ml-1: Activity (Dialister micraerophilus [1]) | Activity [5] | Activity (Dialister invisus [6]) | Activity (Dialister pneumosintes [8])
≤ 0.06 µg/mL: MIC (Dialister pneumosintes [2]) | MIC50 (Dialister pneumosintes [2]) | MIC90 (Dialister pneumosintes [2]) | MIC (Dialister micraerophilus [9]) | MIC50 (Dialister micraerophilus [9]) | MIC90 (Dialister micraerophilus [9]) | MIC (Dialister invisus [12]) | MIC [11]

CC1(C)S[C@@H]2[C@H](NC(=O)[C@H](C(=O)O)c3ccsc3)C(=O)N2[C@H]1C(=O)O [TICARCILLIN]
≤ 0.06 µg/mL: MIC (Dialister pneumosintes [2]) | MIC (Dialister micraerophilus [9]) | MIC50 (Dialister micraerophilus [9]) | MIC [11]
<=16 ug ml-1: Activity (Dialister micraerophilus [1]) | Activity [5] | Activity (Dialister invisus [6]) | Activity (Dialister pneumosintes [8])
<=32 ug ml-1: Activity (Dialister invisus [3]) | Activity [4] | Activity (Dialister micraerophilus [7]) | Activity (Dialister pneumosintes [10])
2 µg/mL: MIC90 (Dialister pneumosintes [2])
0.25 µg/mL: MIC50 (Dialister pneumosintes [2]) | MIC (Dialister invisus [12])
0.5 µg/mL: MIC90 (Dialister micraerophilus [9])
